Measurements published in PubChem BioAssay (NCI).
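How tested: cells in 96-well plates exposed to compound for 48 hours at five concentrations. GI50 marks 50% less growth. TGI: total growth inhibition.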

Columns and labels:
Assay in all cases: NCI anticancer screen, dose series, 48 h
[1] = test system: ACHN renal
[2] = test system: SN12C renal
[3] = test system: IGROV1 ovarian
[4] = test system: M14 melanoma
[5] = test system: SK-MEL-28 melanoma
[6] = test system: RXF 393 renal
[7] = test system: OVCAR-3 ovarian
[8] = test system: UACC-62 melanoma
[9] = test system: NCI-H23 lung
[10] = test system: HL-60(TB) leukemia

Row | SMILES | GI50 [1] | TGI [1] | GI50 [2] | TGI [2] | GI50 [3] | TGI [3] | GI50 [4] | TGI [4] | GI50 [5] | TGI [5] | GI50 [6] | TGI [6] | GI50 [7] | TGI [7] | GI50 [8] | TGI [8] | GI50 [9] | TGI [9] | TGI [10] | GI50 [10]
1 | COc1cc(-c2cn(-c3ccc(Cl)cc3)c(C)c2C(=O)C(F)(F)F)cc(OC)c1OC | > 100 µM | > 100 µM | 12.7 µM | > 100 µM | > 100 µM | > 100 µM | > 100 µM | > 100 µM | > 100 µM | > 100 µM | > 100 µM | > 100 µM | > 100 µM | > 100 µM | > 100 µM | > 100 µM | 60.5 µM | > 100 µM | – | –
2 | CCCCn1cnc2c(SC)ncnc21 | – | > 100 µM | – | > 100 µM | – | > 100 µM | – | > 100 µM | – | > 100 µM | – | > 100 µM | – | > 100 µM | – | > 100 µM | – | > 100 µM | – | –
3 | CC/C=C\C/C=C\C/C=C\CCCCCCCC(=O)OCC | – | > 100 µM | – | > 100 µM | – | > 100 µM | – | > 100 µM | – | > 100 µM | – | – | – | > 100 µM | – | > 100 µM | – | > 100 µM | > 100 µM | –
4 | CC1=C(O)C(=O)C2C(=O)C1C(C)C2c1ccc(Cl)cc1 (stereo not given) | – | > 100 µM | – | – | – | > 100 µM | – | > 100 µM | – | > 100 µM | – | > 100 µM | – | > 100 µM | – | > 100 µM | – | > 100 µM | > 100 µM | –
5 | O=C(CSC(=S)N1CCOCC1)Nc1nc2c(s1)CCCC2 | – | > 100 µM | – | > 100 µM | – | > 100 µM | – | > 100 µM | – | > 100 µM | – | – | – | > 100 µM | – | – | – | > 100 µM | > 100 µM | –
6 | COc1cc(CNc2ccc(C(C)C)cc2)cc(OC)c1OC | – | 60.1 µM | – | 31.4 µM | – | 70 µM | – | – | – | 72.7 µM | – | 14.1 µM | 16.3 µM | 33.4 µM | – | 33 µM | – | 45.5 µM | – | –
7 | c1cnc2[nH]cc(-c3csc(-c4cn(CCCCN5CCOCC5)c5ccccc45)n3)c2c1 | – | – | 2.98 µM | 10.8 µM | 1.43 µM | 4.25 µM | 1.78 µM | 3.62 µM | 1.81 µM | 3.3 µM | 1.67 µM | 3.31 µM | 1.64 µM | 3.17 µM | 1.79 µM | 3.8 µM | 2.04 µM | 4.49 µM | 3.92 µM | 1.96 µM
8 | COc1ccc(O)c(C#N)c1C#N | – | > 100 µM | – | > 100 µM | – | > 100 µM | – | > 100 µM | – | – | – | > 100 µM | – | > 100 µM | – | > 100 µM | – | > 100 µM | > 100 µM | –
9 | NC(C(=O)[O-])C(=O)[O-].NC1CCCCC1N.[Pt+4] | 11.2 µM | > 100 µM | 4.5 µM | > 100 µM | 16.3 µM | > 100 µM | 20.2 µM | > 100 µM | 12.7 µM | > 100 µM | – | – | 2.45 µM | 24 µM | 2.39 µM | 54.5 µM | 13.9 µM | > 100 µM | > 100 µM | 5.28 µM
10 | Cn1nc(-c2ccccc2)c(C(=O)/C=C/c2ccccc2)c(N2CCOCC2)c1=O | – | 39.9 µM | – | 59.2 µM | – | 52.9 µM | – | 52.6 µM | – | – | – | 25.9 µM | – | – | – | 52.9 µM | – | 45.1 µM | 32.3 µM | –
11 | CC12CCC(=O)C=C1CCC1C2C(O)CC2(C)C(c3csc(N)n3)CCC12 (stereo not given) | – | > 100 µM | – | > 100 µM | – | > 100 µM | – | > 100 µM | – | > 100 µM | – | > 100 µM | – | > 100 µM | – | > 100 µM | – | > 100 µM | – | –
12 | COc1cc(Nc2nc(N[C@H]3CCCC[C@@H]3N)nc3cc[nH]c(=O)c23)cc(OC)c1 | 1.38 µM | 19.9 µM | 2.43 µM | 16.9 µM | – | – | 0.379 µM | 2.16 µM | 1.86 µM | 6.44 µM | 0.403 µM | 2.76 µM | 8.71 µM | 21.8 µM | 0.844 µM | 19.1 µM | 1.48 µM | 15.8 µM | 3.8 µM | 0.47 µM
13 | O=C(CCl)N1c2ccccc2Sc2c1ccc1ccccc21 | 1.83 µM | 3.69 µM | 1.79 µM | 3.27 µM | – | – | 1.68 µM | 3.53 µM | 2.98 µM | 7.56 µM | 1.85 µM | 3.43 µM | 1.86 µM | 3.26 µM | 2.07 µM | 4.9 µM | 2.2 µM | 5.11 µM | 8.98 µM | 3.06 µM
14 | COc1nc2nccc-2c2occn12 | – | > 100 µM | – | > 100 µM | – | > 100 µM | – | > 100 µM | – | > 100 µM | – | > 100 µM | – | > 100 µM | – | > 100 µM | – | > 100 µM | – | –
15 | CCOC(=O)NN1C(=O)C(=P(c2ccccc2)(c2ccccc2)c2ccccc2)C(C(=O)OCC)=C1C | – | > 100 µM | – | > 100 µM | – | > 100 µM | – | > 100 µM | – | – | – | > 100 µM | – | > 100 µM | – | > 100 µM | – | > 100 µM | > 100 µM | –
16 | CC(C)NC(=O)OCCS(=O)c1c(Cl)c(Cl)nn1C (stereo not given) | – | > 100 µM | – | > 100 µM | – | > 100 µM | – | 39.4 µM | – | > 100 µM | – | – | – | > 100 µM | – | 67.7 µM | – | > 100 µM | > 100 µM | –
17 | S=c1[nH]c2ccc(Br)cc2c(=S)n1-c1ccccc1 | – | 79.3 µM | – | 98.7 µM | – | 89.1 µM | – | 98.6 µM | – | 59.9 µM | – | – | – | 78.3 µM | – | 32.3 µM | – | 65.6 µM | – | –
18 | CCC12CCCC(=O)N1C(CO)C(c1ccccc1)O2 (stereo not given) | – | > 100 µM | – | > 100 µM | – | > 100 µM | – | – | – | > 100 µM | – | > 100 µM | – | > 100 µM | – | > 100 µM | – | > 100 µM | – | –
19 | CC(=O)n1c2ccccc2c2nc3nc(Oc4ccc(C)cc4)c4ccccc4c3cc21 | – | > 100 µM | – | > 100 µM | – | > 100 µM | – | > 100 µM | – | > 100 µM | – | – | – | > 100 µM | – | > 100 µM | – | 78.7 µM | – | –
20 | O=C1C2=C(c3ccccc31)C(c1ccccc1)NC(=S)N2 (stereo not given) | – | > 100 µM | – | > 100 µM | – | > 100 µM | – | > 100 µM | – | > 100 µM | – | – | – | > 100 µM | – | > 100 µM | – | > 100 µM | 39.6 µM | –
21 | CCCCCCCCCCCC[n+]1ccc(CCCCCCCCC)cc1 | – | – | – | – | – | – | – | – | 1.31 µM | 2.86 µM | 1.36 µM | 2.86 µM | – | – | 0.465 µM | 1.73 µM | 0.39 µM | 1.79 µM | 1.83 µM | 0.362 µM
